# Literature values, collected in patent US20130096134A1, “HETEROCYCLIC COMPOUNDS AND THEIR USES” (Amgen Inc., priority 2010, published 2013).
# Columns and labels:
# [1] = system: mouse model of rheumatoid arthritis; conditions: in vivo
# [2] = system: model of systemic lupus erythematosis; conditions: in vivo
# murine model of asthma = conditions: ovalbumin-induced airway inflammation
# p110δ = molecular target: T1, p110δ (Homo sapiens, UniProt O00329)
# T1 sequence (O00329 1-1044): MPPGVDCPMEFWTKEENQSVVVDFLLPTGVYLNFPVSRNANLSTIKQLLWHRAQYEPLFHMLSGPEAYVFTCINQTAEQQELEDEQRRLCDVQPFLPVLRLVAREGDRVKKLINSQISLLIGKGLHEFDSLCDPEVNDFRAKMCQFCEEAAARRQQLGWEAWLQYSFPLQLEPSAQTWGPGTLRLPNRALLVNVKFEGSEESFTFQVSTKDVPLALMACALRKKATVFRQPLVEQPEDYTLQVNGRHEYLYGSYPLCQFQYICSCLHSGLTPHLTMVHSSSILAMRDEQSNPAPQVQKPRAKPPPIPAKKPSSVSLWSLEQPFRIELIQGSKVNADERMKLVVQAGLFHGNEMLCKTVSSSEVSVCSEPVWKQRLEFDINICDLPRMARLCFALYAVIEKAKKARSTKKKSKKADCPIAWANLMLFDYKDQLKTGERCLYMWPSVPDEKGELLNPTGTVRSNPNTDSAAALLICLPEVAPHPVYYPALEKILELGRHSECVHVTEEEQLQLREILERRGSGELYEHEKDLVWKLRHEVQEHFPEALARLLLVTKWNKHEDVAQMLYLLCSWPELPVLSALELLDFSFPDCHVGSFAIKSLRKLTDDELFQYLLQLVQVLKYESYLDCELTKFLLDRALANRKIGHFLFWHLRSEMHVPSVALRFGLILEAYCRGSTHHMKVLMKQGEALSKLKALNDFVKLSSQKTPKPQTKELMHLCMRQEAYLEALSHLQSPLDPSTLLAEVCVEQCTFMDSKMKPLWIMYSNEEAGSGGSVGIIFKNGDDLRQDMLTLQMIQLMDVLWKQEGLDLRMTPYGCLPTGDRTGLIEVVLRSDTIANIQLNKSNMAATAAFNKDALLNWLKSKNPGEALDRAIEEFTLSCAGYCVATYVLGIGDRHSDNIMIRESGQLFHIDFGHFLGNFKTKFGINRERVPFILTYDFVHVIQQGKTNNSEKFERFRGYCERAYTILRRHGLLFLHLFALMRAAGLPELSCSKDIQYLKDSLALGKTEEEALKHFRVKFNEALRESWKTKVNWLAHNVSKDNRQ
SMILES,efficacy in a mouse model of rheumatoid arthritis [1],onset of disease in a model of systemic lupus erythematosis [2],inflammation and disease in a murine model of asthma (murine model of asthma),inhibition of p110δ (p110δ),activity against any protein kinases tested (protein kinases)
O=C1NC(=O)/C(=C\c2ccc3nccnc3c2)S1 [AS 605240],efficacious,delay onset of disease,–,–,–
Cc1ccccc1-n1c(Cn2cnc3c(N)ncnc32)nc2cccc(C)c2c1=O [IC87114],–,–,significantly ameliorate inflammation and disease,high nanomolar range (triple digit),no activity
